Source: BigSolDB 2.1

**Q.** With `O=C(O)c1ccco1` as the molecule, how does the solubility (mole fraction) (in 1,2-dichloroethane, 283.15 K) read?
**A.** 0.014

**Q.** And the solubility (mole fraction) (in 1,2-dichloroethane, 288.15 K)?
**A.** 0.017

**Q.** What about the solubility (mole fraction) (in 1,2-dichloroethane, 293.15 K) of the same molecule?
**A.** 0.023

**Q.** What about the solubility (mole fraction) (in 1,2-dichloroethane, 298.15 K) of the same molecule?
**A.** 0.029

**Q.** What about the solubility (mole fraction) (in 1,2-dichloroethane, 303.15 K) of the same molecule?
**A.** 0.035

**Q.** And the solubility (mole fraction) (in 1,2-dichloroethane, 308.15 K)?
**A.** 0.046

**Q.** What about the solubility (mole fraction) (in 1,2-dichloroethane, 313.15 K) of the same molecule?
**A.** 0.057

**Q.** What about the solubility (mole fraction) (in 1,2-dichloroethane, 318.15 K) of the same molecule?
**A.** 0.068

**Q.** What about the solubility (mole fraction) (in 1,2-dichloroethane, 323.15 K) of the same molecule?
**A.** 0.084

**Q.** And the solubility (mole fraction) (in 1,2-dichloroethane, 328.15 K)?
**A.** 0.103

**Q.** What about the solubility (mole fraction) (in 1,2-dichloroethane, 333.15 K) of the same molecule?
**A.** 0.126

**Q.** What about the solubility (mole fraction) (in MIBK, 283.15 K) of the same molecule?
**A.** 0.095

**Q.** And the solubility (mole fraction) (in MIBK, 288.15 K)?
**A.** 0.11

**Q.** What about the solubility (mole fraction) (in MIBK, 293.15 K) of the same molecule?
**A.** 0.122

**Q.** What about the solubility (mole fraction) (in MIBK, 298.15 K) of the same molecule?
**A.** 0.137

**Q.** And the solubility (mole fraction) (in MIBK, 303.15 K)?
**A.** 0.154

**Q.** What about the solubility (mole fraction) (in MIBK, 308.15 K) of the same molecule?
**A.** 0.177

**Q.** What about the solubility (mole fraction) (in MIBK, 313.15 K) of the same molecule?
**A.** 0.195

**Q.** What about the solubility (mole fraction) (in MIBK, 318.15 K) of the same molecule?
**A.** 0.211

**Q.** And the solubility (mole fraction) (in MIBK, 323.15 K)?
**A.** 0.237

**Q.** And the solubility (mole fraction) (in MIBK, 328.15 K)?
**A.** 0.26

**Q.** And the solubility (mole fraction) (in MIBK, 333.15 K)?
**A.** 0.286

**Q.** And the solubility (mole fraction) (in acetonitrile, 283.15 K)?
**A.** 0.046

**Q.** And the solubility (mole fraction) (in acetonitrile, 288.15 K)?
**A.** 0.057

**Q.** What about the solubility (mole fraction) (in acetonitrile, 293.15 K) of the same molecule?
**A.** 0.064

**Q.** What about the solubility (mole fraction) (in acetonitrile, 298.15 K) of the same molecule?
**A.** 0.077

**Q.** What about the solubility (mole fraction) (in acetonitrile, 303.15 K) of the same molecule?
**A.** 0.093

**Q.** And the solubility (mole fraction) (in acetonitrile, 308.15 K)?
**A.** 0.115

**Q.** What about the solubility (mole fraction) (in acetonitrile, 313.15 K) of the same molecule?
**A.** 0.132

**Q.** What about the solubility (mole fraction) (in acetonitrile, 318.15 K) of the same molecule?
**A.** 0.155

**Q.** And the solubility (mole fraction) (in acetonitrile, 323.15 K)?
**A.** 0.182

**Q.** What about the solubility (mole fraction) (in acetonitrile, 328.15 K) of the same molecule?
**A.** 0.208

**Q.** And the solubility (mole fraction) (in acetonitrile, 333.15 K)?
**A.** 0.242

**Q.** And the solubility (mole fraction) (in diisopropyl ether, 283.15 K)?
**A.** 0.035

**Q.** What about the solubility (mole fraction) (in diisopropyl ether, 288.15 K) of the same molecule?
**A.** 0.041

**Q.** What about the solubility (mole fraction) (in diisopropyl ether, 293.15 K) of the same molecule?
**A.** 0.048

**Q.** What about the solubility (mole fraction) (in diisopropyl ether, 298.15 K) of the same molecule?
**A.** 0.054

**Q.** And the solubility (mole fraction) (in diisopropyl ether, 303.15 K)?
**A.** 0.061

**Q.** What about the solubility (mole fraction) (in diisopropyl ether, 308.15 K) of the same molecule?
**A.** 0.069

**Q.** And the solubility (mole fraction) (in diisopropyl ether, 313.15 K)?
**A.** 0.077

**Q.** And the solubility (mole fraction) (in diisopropyl ether, 318.15 K)?
**A.** 0.087

**Q.** What about the solubility (mole fraction) (in diisopropyl ether, 323.15 K) of the same molecule?
**A.** 0.097

**Q.** And the solubility (mole fraction) (in diisopropyl ether, 328.15 K)?
**A.** 0.108

**Q.** And the solubility (mole fraction) (in diisopropyl ether, 333.15 K)?
**A.** 0.121

**Q.** And the solubility (mole fraction) (in methanol, 283.15 K)?
**A.** 0.347

**Q.** And the solubility (mole fraction) (in methanol, 288.15 K)?
**A.** 0.393

**Q.** And the solubility (mole fraction) (in methanol, 293.15 K)?
**A.** 0.428

**Q.** What about the solubility (mole fraction) (in methanol, 298.15 K) of the same molecule?
**A.** 0.451

**Q.** What about the solubility (mole fraction) (in methanol, 303.15 K) of the same molecule?
**A.** 0.48

**Q.** What about the solubility (mole fraction) (in methanol, 308.15 K) of the same molecule?
**A.** 0.504

**Q.** And the solubility (mole fraction) (in methanol, 313.15 K)?
**A.** 0.524

**Q.** And the solubility (mole fraction) (in methanol, 318.15 K)?
**A.** 0.551

**Q.** And the solubility (mole fraction) (in methanol, 323.15 K)?
**A.** 0.571

**Q.** What about the solubility (mole fraction) (in methanol, 328.15 K) of the same molecule?
**A.** 0.607

**Q.** And the solubility (mole fraction) (in methanol, 333.15 K)?
**A.** 0.643

**Q.** And the solubility (mole fraction) (in n-hexane, 298.15 K)?
**A.** 0.001

**Q.** What about the solubility (mole fraction) (in n-hexane, 303.15 K) of the same molecule?
**A.** 0.001

**Q.** And the solubility (mole fraction) (in n-hexane, 308.15 K)?
**A.** 0.001

**Q.** What about the solubility (mole fraction) (in n-hexane, 313.15 K) of the same molecule?
**A.** 0.002

**Q.** What about the solubility (mole fraction) (in n-hexane, 318.15 K) of the same molecule?
**A.** 0.002

**Q.** And the solubility (mole fraction) (in n-hexane, 323.15 K)?
**A.** 0.003

**Q.** What about the solubility (mole fraction) (in n-hexane, 328.15 K) of the same molecule?
**A.** 0.004

**Q.** And the solubility (mole fraction) (in n-hexane, 333.15 K)?
**A.** 0.005

**Q.** And the solubility (mole fraction) (in toluene, 283.15 K)?
**A.** 0.005

**Q.** What about the solubility (mole fraction) (in toluene, 288.15 K) of the same molecule?
**A.** 0.006

**Q.** And the solubility (mole fraction) (in toluene, 293.15 K)?
**A.** 0.008

**Q.** And the solubility (mole fraction) (in toluene, 298.15 K)?
**A.** 0.011

**Q.** And the solubility (mole fraction) (in toluene, 303.15 K)?
**A.** 0.013

**Q.** And the solubility (mole fraction) (in toluene, 308.15 K)?
**A.** 0.017

**Q.** What about the solubility (mole fraction) (in toluene, 313.15 K) of the same molecule?
**A.** 0.021

**Q.** And the solubility (mole fraction) (in toluene, 318.15 K)?
**A.** 0.027

**Q.** And the solubility (mole fraction) (in toluene, 323.15 K)?
**A.** 0.034

**Q.** And the solubility (mole fraction) (in toluene, 328.15 K)?
**A.** 0.045

**Q.** What about the solubility (mole fraction) (in toluene, 333.15 K) of the same molecule?
**A.** 0.056
